# What was measured:
# Pseudomonas aeruginosa [1] = assay: Antibacterial activity against Pseudomonas aeruginosa AUMC B-73 by microdilution method; type: functional
# SK-OV-3 = assay: Cytotoxicity against human SKOV3 cells after 48 hrs by neutral red dye based assay; type: functional, cell-based; conditions: SK-OV-3, 48 h
# Candida albicans [2] = assay: Antifungal activity against Candida albicans AUMC 418 assessed as diameter of inhibition zone after 48 hrs by agar disc diffusion method; type: functional
# Staphylococcus aureus [3] = assay: Antibacterial activity against Staphylococcus aureus AUMC B-54 assessed as diameter of inhibition zone after 24 hrs by agar disc diffusion method; type: functional
# Bacillus cereus [4] = assay: Antibacterial activity against Bacillus cereus AUMC B-5 by microdilution method; type: functional
# Bacillus cereus [5] = assay: Antibacterial activity against Bacillus cereus AUMC B-5 assessed as diameter of inhibition zone after 24 hrs by agar disc diffusion method; type: functional
# KB = assay: Cytotoxicity against human KB cells after 48 hrs by neutral red dye based assay; type: functional, cell-based
# Geotrichum candidum [6] = assay: Antifungal activity against Geotrichum candidum AUMC 226 by microdilution method; type: functional
# Geotrichum candidum [7] = assay: Antifungal activity against Geotrichum candidum AUMC 226 assessed as diameter of inhibition zone after 48 hrs by agar disc diffusion method; type: functional
# Serratia marcescens [8] = assay: Antibacterial activity against Serratia marcescens AUMC B-55 by microdilution method; type: functional
# MCF7 = assay: Cytotoxicity against human MCF7 cells after 48 hrs by neutral red dye based assay; type: functional, cell-based; conditions: MCF7, 48 h
# Staphylococcus aureus [9] = assay: Antibacterial activity against Staphylococcus aureus AUMC B-54 by microdilution method; type: functional
# Trichophyton rubrum [10] = assay: Antifungal activity against Trichophyton rubrum AUMC 1804 assessed as diameter of inhibition zone after 48 hrs by agar disc diffusion method; type: functional
# Serratia marcescens [11] = assay: Antibacterial activity against Serratia marcescens AUMC B-55 assessed as diameter of inhibition zone after 24 hrs by agar disc diffusion method; type: functional
# Pseudomonas aeruginosa [12] = assay: Antibacterial activity against Pseudomonas aeruginosa AUMC B-73 assessed as diameter of inhibition zone after 24 hrs by agar disc diffusion method; type: functional
# HCT-116 = assay: Cytotoxicity against human HCT116 cells after 48 hrs by neutral red dye based assay; type: functional, cell-based; conditions: HCT-116, 48 h
# Trichophyton rubrum [13] = assay: Antifungal activity against Trichophyton rubrum AUMC 1804 by microdilution method; type: functional
# Escherichia coli [14] = assay: Antibacterial activity against Escherichia coli AUMC B-53 assessed as diameter of inhibition zone after 24 hrs by agar disc diffusion method; type: functional
# Candida albicans [15] = assay: Antifungal activity against Candida albicans AUMC 418 by microdilution method; type: functional
# Escherichia coli [16] = assay: Antibacterial activity against Escherichia coli AUMC B-53 by microdilution method; type: functional
# SK-MEL = assay: Cytotoxicity against human SK-MEL cells after 48 hrs by neutral red dye based assay; type: functional, cell-based
# BT-549 = assay: Cytotoxicity against human BT549 cells after 48 hrs by neutral red dye based assay; type: functional, cell-based; conditions: BT-549, 48 h
# Escherichia coli [17] = assay: Antibacterial activity against Escherichia coli AUMC B-53 assessed as diameter of inhibition zone at 10 ug/disc after 24 hrs by agar disc diffusion method; conditions: AUMC B-53, 24 h, read-out: DIZ
# Staphylococcus aureus [18] = assay: Antibacterial activity against Staphylococcus aureus AUMC B-54 assessed as diameter of inhibition zone at 10 ug/disc after 24 hrs by agar disc diffusion method; conditions: AUMC B-54, 24 h, read-out: DIZ
# Pseudomonas aeruginosa [19] = assay: Antibacterial activity against Pseudomonas aeruginosa AUMC B-73 assessed as diameter of inhibition zone at 10 ug/disc after 24 hrs by agar disc diffusion method; conditions: AUMC B-73, 24 h, read-out: DIZ
# Bacillus cereus [20] = assay: Antibacterial activity against Bacillus cereus AUMC B-5 assessed as diameter of inhibition zone at 10 ug/disc after 24 hrs by agar disc diffusion method; type: functional; conditions: AUMC B-5, 24 h, read-out: DIZ
# Serratia marcescens [21] = assay: Antibacterial activity against Serratia marcescens AUMC B-55 assessed as diameter of inhibition zone at 10 ug/disc after 24 hrs by agar disc diffusion method; type: functional; conditions: AUMC B-55, 24 h, read-out: DIZ
# Candida albicans [22] = assay: Antifungal activity against Candida albicans AUMC 418 assessed as diameter of inhibition zone at 5 ug/disc after 48 hrs by agar disc diffusion method; type: functional; conditions: AUMC 418, 48 h, read-out: DIZ
# Geotrichum candidum [23] = assay: Antifungal activity against Geotrichum candidum AUMC 226 assessed as diameter of inhibition zone at 5 ug/disc after 48 hrs by agar disc diffusion method; type: functional; conditions: AUMC 226, 48 h, read-out: DIZ
# Trichophyton rubrum [24] = assay: Antifungal activity against Trichophyton rubrum AUMC 1804 assessed as diameter of inhibition zone at 5 ug/disc after 48 hrs by agar disc diffusion method; type: functional; conditions: AUMC 1804, 48 h, read-out: DIZ
MIC (Bacillus cereus [4]),MIC (Geotrichum candidum [6]),MIC (Serratia marcescens [8]),MIC (Trichophyton rubrum [13]),MIC (Candida albicans [15]),SMILES,IC50 (SK-OV-3),IC50 (KB),IC50 (HCT-116),IC50 (SK-MEL),IC50 (BT-549),other results
2.5 µg/mL,6.9 µg/mL,92.1 µg/mL,5.2 µg/mL,1.9 µg/mL,CC1NC(=O)C(C)(CC(=O)O)NC(CN)OC(CCS)NC(=O)c2ccccc2NC1=O (stereo not given),1230 nM,6900 nM,590 nM,11200 nM,90 nM,MIC (Pseudomonas aeruginosa [1]): 68.4 µg/mL; diameter of the inhibition zone (DIZ) (Candida albicans [2]): 14.5 mm; diameter of the inhibition zone (DIZ) (Staphylococcus aureus [3]): 17.4 mm; diameter of the inhibition zone (DIZ) (Bacillus cereus [5]): 23 mm; diameter of the inhibition zone (DIZ) (Geotrichum candidum [7]): 28.9 mm; IC50 (MCF7): 210 nM; MIC (Staphylococcus aureus [9]): 3.1 µg/mL; diameter of the inhibition zone (DIZ) (Trichophyton rubrum [10]): 40.3 mm; diameter of the inhibition zone (DIZ) (Serratia marcescens [11]): 4.5 mm; diameter of the inhibition zone (DIZ) (Pseudomonas aeruginosa [12]): 7.2 mm; diameter of the inhibition zone (DIZ) (Escherichia coli [14]): 25.1 mm; MIC (Escherichia coli [16]): 3.7 µg/mL
2.9 µg/mL,,9.1 µg/mL,,,O=C(O)c1cn(C2CC2)c2cc(N3CCNCC3)c(F)cc2c1=O [CIPROFLOXACIN],,,,,,zone of inhibition at 10 µg/disc (Escherichia coli [17]): 25.6 mm; zone of inhibition at 10 µg/disc (Staphylococcus aureus [18]): 15.3 mm; zone of inhibition at 10 µg/disc (Pseudomonas aeruginosa [19]): 14.8 mm; zone of inhibition at 10 µg/disc (Bacillus cereus [20]): 21.2 mm; zone of inhibition at 10 µg/disc (Serratia marcescens [21]): 30.1 mm
,4.9 µg/mL,,8.1 µg/mL,2.8 µg/mL,Clc1ccccc1C(c1ccccc1)(c1ccccc1)n1ccnc1 [CLOTRIMAZOLE],,,,,,zone of inhibition at 5 µg/disc (Candida albicans [22]): 17.9 mm; zone of inhibition at 5 µg/disc (Geotrichum candidum [23]): 20.1 mm; zone of inhibition at 5 µg/disc (Trichophyton rubrum [24]): 15.5 mm
,,,,,COc1cccc2c1C(=O)c1c(O)c3c(c(O)c1C2=O)C[C@@](O)(C(=O)CO)C[C@@H]3O[C@H]1C[C@H](N)[C@H](O)[C@H](C)O1 [DOXORUBICIN],321 nM,24 nM,240 nM,159 nM,45 nM,
